Assays:
[1] = Cytotoxicity against human K562 cells assessed as decrease in cell viability after 48 hrs by cell titer-glo luminescence assay; type: cell-based; conditions: read-out: ED50
K562 [2] = experiment: Cytotoxicity against human K562 cells assessed as decrease in cell viability after 24 to 48 hrs by cell titer-glo luminescence assay; type: cell-based
K562 [3] = experiment: Potentiation of (-)-lomaiviticin A-induced cytotoxicity against human K562 cells assessed as (-)-lomaiviticin A ED50 at compound to (-)-lomaiviticin A ratio of 200:1 after 48 hrs by cell titer-glo luminescence assay (reference value: 0.23776 nM); type: functional; conditions: K562, 48 h, read-out: ED50 (the source's name)
K562 [4] = experiment: Potentiation of 7 nM (-)-lomaiviticin A-induced cytotoxicity against human K562 cells assessed as combination index at 1.4 uM after 48 hrs by cell titer-glo luminescence assay; type: functional
K562 [5] = experiment: Potentiation of 0.025 nM (-)-lomaiviticin A-induced cytotoxicity against human K562 cells assessed as fraction ratio affected at 0.005 uM after 48 hrs by cell titer-glo luminescence assay; type: functional
K562 [6] = experiment: Potentiation of 0.125 nM (-)-lomaiviticin A-induced cytotoxicity against human K562 cells assessed as fraction ratio affected at 0.025 uM after 48 hrs by cell titer-glo luminescence assay; type: functional
K562 [7] = experiment: Potentiation of 0.25 nM (-)-lomaiviticin A-induced cytotoxicity against human K562 cells assessed as fraction ratio affected at 0.05 uM after 48 hrs by cell titer-glo luminescence assay; type: functional
K562 [8] = experiment: Potentiation of 1.25 nM (-)-lomaiviticin A-induced cytotoxicity against human K562 cells assessed as fraction ratio affected at 0.25 uM after 48 hrs by cell titer-glo luminescence assay; type: functional
K562 [9] = experiment: Potentiation of 2.5 nM (-)-lomaiviticin A-induced cytotoxicity against human K562 cells assessed as fraction ratio affected at 0.5 uM after 48 hrs by cell titer-glo luminescence assay; type: functional
K562 [10] = experiment: Potentiation of 7 nM (-)-lomaiviticin A-induced cytotoxicity against human K562 cells assessed as fraction ratio affected at 1.4 uM after 48 hrs by cell titer-glo luminescence assay; type: functional
K562 [11] = experiment: Potentiation of 0.025 nM (-)-lomaiviticin A-induced cytotoxicity against human K562 cells assessed as combination index at 0.005 uM after 48 hrs by cell titer-glo luminescence assay; type: functional
K562 [12] = experiment: Potentiation of 0.125 nM (-)-lomaiviticin A-induced cytotoxicity against human K562 cells assessed as combination index at 0.025 uM after 48 hrs by cell titer-glo luminescence assay; type: functional
K562 [13] = experiment: Potentiation of 0.25 nM (-)-lomaiviticin A-induced cytotoxicity against human K562 cells assessed as combination index at 0.05 uM after 48 hrs by cell titer-glo luminescence assay; type: functional
K562 [14] = experiment: Potentiation of 1.25 nM (-)-lomaiviticin A-induced cytotoxicity against human K562 cells assessed as combination index at 0.25 uM after 48 hrs by cell titer-glo luminescence assay; type: functional
K562 [15] = experiment: Potentiation of 2.5 nM (-)-lomaiviticin A-induced cytotoxicity against human K562 cells assessed as combination index at 0.5 uM after 48 hrs by cell titer-glo luminescence assay; type: functional
K562 [16] = experiment: Cytotoxicity against human K562 cells assessed as decrease in cell viability up to 2.5 to 10 uM after 24 to 48 hrs by cell titer-glo luminescence assay; type: cell-based
K562 [17] = experiment: Potentiation of 0.0050 uM (-)-lomaiviticin A-induced cytotoxicity against human K562 cells assessed as fraction ratio affected at 5 uM after 24 hrs by cell titer-glo luminescence assay; type: functional
K562 [18] = experiment: Potentiation of 2.5x10'-5 uM (-)-lomaiviticin A-induced cytotoxicity against human K562 cells assessed as combination index at 5 uM after 24 hrs by cell titer-glo luminescence assay; type: functional
K562 [19] = experiment: Potentiation of 5x10'-5 uM (-)-lomaiviticin A-induced cytotoxicity against human K562 cells assessed as combination index at 5 uM after 24 hrs by cell titer-glo luminescence assay; type: functional
K562 [20] = experiment: Potentiation of 2.5x10'-4 uM (-)-lomaiviticin A-induced cytotoxicity against human K562 cells assessed as combination index at 5 uM after 24 hrs by cell titer-glo luminescence assay; type: functional
K562 [21] = experiment: Potentiation of 5x10'-4 uM (-)-lomaiviticin A-induced cytotoxicity against human K562 cells assessed as combination index at 5 uM after 24 hrs by cell titer-glo luminescence assay; type: functional
K562 [22] = experiment: Potentiation of 0.0025 uM (-)-lomaiviticin A-induced cytotoxicity against human K562 cells assessed as combination index at 5 uM after 24 hrs by cell titer-glo luminescence assay; type: functional
K562 [23] = experiment: Potentiation of 0.0050 uM (-)-lomaiviticin A-induced cytotoxicity against human K562 cells assessed as combination index at 5 uM after 24 hrs by cell titer-glo luminescence assay; type: functional
K562 [24] = experiment: Potentiation of 2.5x10'-5 uM (-)-lomaiviticin A-induced cytotoxicity against human K562 cells assessed as fraction ratio affected at 5 uM after 48 hrs by cell titer-glo luminescence assay; type: functional
K562 [25] = experiment: Potentiation of 2.5x10'-4 uM (-)-lomaiviticin A-induced cytotoxicity against human K562 cells assessed as fraction ratio affected at 5 uM after 48 hrs by cell titer-glo luminescence assay; type: functional
K562 [26] = experiment: Potentiation of 5x10'-4 uM (-)-lomaiviticin A-induced cytotoxicity against human K562 cells assessed as fraction ratio affected at 5 uM after 48 hrs by cell titer-glo luminescence assay; type: functional
K562 [27] = experiment: Potentiation of 0.0025 uM (-)-lomaiviticin A-induced cytotoxicity against human K562 cells assessed as fraction ratio affected at 5 uM after 48 hrs by cell titer-glo luminescence assay; type: functional
K562 [28] = experiment: Potentiation of 0.0050 uM (-)-lomaiviticin A-induced cytotoxicity against human K562 cells assessed as fraction ratio affected at 5 uM after 48 hrs by cell titer-glo luminescence assay; type: functional
K562 [29] = experiment: Potentiation of 2.5x10'-5 uM (-)-lomaiviticin A-induced cytotoxicity against human K562 cells assessed as combination index at 5 uM after 48 hrs by cell titer-glo luminescence assay; type: functional
K562 [30] = experiment: Potentiation of 5x10'-5 uM (-)-lomaiviticin A-induced cytotoxicity against human K562 cells assessed as combination index at 5 uM after 48 hrs by cell titer-glo luminescence assay; type: functional
K562 [31] = experiment: Potentiation of 2.5x10'-4 uM (-)-lomaiviticin A-induced cytotoxicity against human K562 cells assessed as combination index at 5 uM after 48 hrs by cell titer-glo luminescence assay; type: functional
K562 [32] = experiment: Potentiation of 5x10'-4 uM (-)-lomaiviticin A-induced cytotoxicity against human K562 cells assessed as combination index at 5 uM after 48 hrs by cell titer-glo luminescence assay; type: functional
K562 [33] = experiment: Potentiation of 0.0025 uM (-)-lomaiviticin A-induced cytotoxicity against human K562 cells assessed as combination index at 5 uM after 48 hrs by cell titer-glo luminescence assay; type: functional
K562 [34] = experiment: Potentiation of 0.0050 uM (-)-lomaiviticin A-induced cytotoxicity against human K562 cells assessed as combination index at 5 uM after 48 hrs by cell titer-glo luminescence assay; type: functional

SMILES: O=C(CCCCCCC(=O)Nc1ccccc1)NO [VORINOSTAT]
- CC50 at 48 h [1]: 1250 nM
- Activity (K562 [2]): Dose-dependent effect

SMILES: Cn1c(=O)n(-c2ccc(C(C)(C)C#N)cc2)c2c3cc(-c4cnc5ccccc5c4)ccc3ncc21 [DACTOLISIB]
- EC50 (K562 [3]): 20.2 nM
- CC50 at 48 h [1]: 48.9 nM
- CI (K562 [4]): 0.3291
- Activity (K562 [2]): Dose-dependent effect
- Ratio (K562 [5]): 0.2836
- Ratio (K562 [6]): 0.4369
- Ratio (K562 [7]): 0.6128
- Ratio (K562 [8]): 0.9514
- Ratio (K562 [9]): 0.9739
- Ratio (K562 [10]): 0.9929
- CI (K562 [11]): 8.288
- CI (K562 [12]): 2.3513
- CI (K562 [13]): 0.8101
- CI (K562 [14]): 0.3514
- CI (K562 [15]): 0.3901

SMILES: O=C(c1cc(Cc2n[nH]c(=O)c3ccccc23)ccc1F)N1CCN(C(=O)C2CC2)CC1 [OLAPARIB]
- Activity (K562 [16]): Non-toxic
- Ratio (K562 [17]): 0.03638
- CI (K562 [18]): 0.182
- CI (K562 [19]): 28.4346
- CI (K562 [20]): 29.7935
- CI (K562 [21]): 31.4921
- CI (K562 [22]): 45.0812
- CI (K562 [23]): 1.234
- Ratio (K562 [24]): 0.00109
- Ratio (K562 [25]): 0.02866
- Ratio (K562 [26]): 0.1238
- Ratio (K562 [27]): 0.3508
- Ratio (K562 [28]): 0.557
- CI (K562 [29]): 0.138
- CI (K562 [30]): 29.2295
- CI (K562 [31]): 0.2699
- CI (K562 [32]): 0.358
- CI (K562 [33]): 1.277
- CI (K562 [34]): 2.076
